In article PMC5945515, “Measuring glucocorticoid receptor expression in vivo with PET” (Oncotarget, 2018) one finds Kd data, which are given here for 2 compounds.

For one assay, the target named is T1, human GR (Homo sapiens, UniProt P04150).
T1 construct: PC3 and DU145, two human prostate cancer models with endogenous GR expression; endogenous in cells; host or cells: DU145
T1 sequence (P04150 1-777): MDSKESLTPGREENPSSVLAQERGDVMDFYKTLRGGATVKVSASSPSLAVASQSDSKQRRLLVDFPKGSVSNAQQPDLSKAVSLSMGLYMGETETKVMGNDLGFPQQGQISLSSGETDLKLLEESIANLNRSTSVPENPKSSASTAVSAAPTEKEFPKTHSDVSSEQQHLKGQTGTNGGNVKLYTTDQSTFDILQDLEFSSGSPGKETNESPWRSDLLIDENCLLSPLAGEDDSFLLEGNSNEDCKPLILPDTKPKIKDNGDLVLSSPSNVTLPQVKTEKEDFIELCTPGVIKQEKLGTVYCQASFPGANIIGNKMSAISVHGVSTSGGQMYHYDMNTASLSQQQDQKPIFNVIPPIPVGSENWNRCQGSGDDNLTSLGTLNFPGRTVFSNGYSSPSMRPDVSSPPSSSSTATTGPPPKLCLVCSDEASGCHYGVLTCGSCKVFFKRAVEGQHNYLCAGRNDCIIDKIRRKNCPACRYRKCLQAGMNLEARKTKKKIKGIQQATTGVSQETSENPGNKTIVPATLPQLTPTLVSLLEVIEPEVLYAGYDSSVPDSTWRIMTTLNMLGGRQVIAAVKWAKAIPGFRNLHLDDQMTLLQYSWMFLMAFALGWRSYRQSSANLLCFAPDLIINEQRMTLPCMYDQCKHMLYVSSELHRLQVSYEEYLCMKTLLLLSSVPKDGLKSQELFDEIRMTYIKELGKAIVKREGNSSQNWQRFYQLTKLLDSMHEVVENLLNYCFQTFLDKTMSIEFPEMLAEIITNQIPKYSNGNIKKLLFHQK
In words: Competition binding assay on cells, human GR. As for the experimental part:
The KD for subfamily 3 group C nuclear hormone receptors was determined on cells by displacing ^3H-steroidal agonists for the respective receptor.
The cold ligands and ^3H-steroids were co-incubated on cells in PBS at room temperature for one hour. Following incubation, the cells were washed twice with ice cold PBS and the unbound activity was retained for analysis. The cells were lysed with 1 mL of 1 M NaOH and collected. Bound and unbound fractions were counted in a liquid scintillation counter and expressed as a percentage of the total activity added per equal relative number of cells. […] The specific binding component was plotted against the log of the competing ligand and curve fit using a non-linear regression algorithm with PRISM software.

A further assay concerns the target T2, huER (Homo sapiens, UniProt P03372).
T2 construct: DU145 (GR), LNCaP-AR (AR), MCF7 (PR, ER), GL261 (mouse GR), and 9L (rat GR); endogenous in cells; host or cells: MCF7
T2 sequence (P03372 1-595): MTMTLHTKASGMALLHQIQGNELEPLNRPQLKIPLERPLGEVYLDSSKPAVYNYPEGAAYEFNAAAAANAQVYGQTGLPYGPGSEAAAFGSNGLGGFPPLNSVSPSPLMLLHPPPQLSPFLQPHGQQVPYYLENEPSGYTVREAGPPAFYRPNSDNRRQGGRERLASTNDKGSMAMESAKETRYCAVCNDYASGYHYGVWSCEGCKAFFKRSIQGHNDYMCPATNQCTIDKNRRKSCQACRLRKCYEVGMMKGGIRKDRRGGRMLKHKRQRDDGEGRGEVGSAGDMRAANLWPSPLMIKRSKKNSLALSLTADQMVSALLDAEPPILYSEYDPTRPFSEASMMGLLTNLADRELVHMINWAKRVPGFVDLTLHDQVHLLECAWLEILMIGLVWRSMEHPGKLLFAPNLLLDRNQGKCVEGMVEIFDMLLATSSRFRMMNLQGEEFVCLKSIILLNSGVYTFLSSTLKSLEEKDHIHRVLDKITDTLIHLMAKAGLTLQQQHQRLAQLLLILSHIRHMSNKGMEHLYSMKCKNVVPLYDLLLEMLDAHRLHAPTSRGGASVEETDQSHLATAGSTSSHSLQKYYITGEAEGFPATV
Nature of the assay: Competition binding assay on cells, human ER. The conditions noted are these: MCF7 cells, displacing 3H-estradiol.

The next assay deals with T3, rat GR (Rattus norvegicus, UniProt P06536).
T3 construct: endogenous in cells; host or cells: 9L
T3 sequence (P06536 1-795): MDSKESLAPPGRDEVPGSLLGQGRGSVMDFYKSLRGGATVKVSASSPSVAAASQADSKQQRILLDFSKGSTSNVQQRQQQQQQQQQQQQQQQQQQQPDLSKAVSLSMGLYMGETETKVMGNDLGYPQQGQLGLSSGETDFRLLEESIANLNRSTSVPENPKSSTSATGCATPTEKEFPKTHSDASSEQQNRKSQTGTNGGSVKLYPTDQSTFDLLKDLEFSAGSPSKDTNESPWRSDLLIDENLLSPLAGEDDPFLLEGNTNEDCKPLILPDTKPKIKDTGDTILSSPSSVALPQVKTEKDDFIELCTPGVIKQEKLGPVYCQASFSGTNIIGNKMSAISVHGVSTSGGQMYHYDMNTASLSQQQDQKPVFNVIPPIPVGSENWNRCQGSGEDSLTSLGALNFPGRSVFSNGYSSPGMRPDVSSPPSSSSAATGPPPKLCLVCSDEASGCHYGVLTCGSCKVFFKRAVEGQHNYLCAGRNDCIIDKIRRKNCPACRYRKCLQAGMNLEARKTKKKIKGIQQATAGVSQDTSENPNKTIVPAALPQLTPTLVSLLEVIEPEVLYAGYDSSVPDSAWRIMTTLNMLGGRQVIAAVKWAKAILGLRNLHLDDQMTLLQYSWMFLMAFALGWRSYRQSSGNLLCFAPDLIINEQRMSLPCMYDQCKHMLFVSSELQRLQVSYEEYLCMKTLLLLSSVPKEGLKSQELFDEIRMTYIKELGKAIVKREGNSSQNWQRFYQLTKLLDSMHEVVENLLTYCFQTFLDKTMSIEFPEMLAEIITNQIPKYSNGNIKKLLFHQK
Nature of the assay: Competition binding assay on cells, rat GR. The conditions noted are these: 9L cells, displacing 3H-dexamethasone; read-out: KD rtGR. On the procedure: The KD for subfamily 3 group C nuclear hormone receptors was determined on cells by displacing ^3H-steroidal agonists for the respective receptor. […].
The cold ligands and ^3H-steroids were co-incubated on cells in PBS at room temperature for one hour. Following incubation, the cells were washed twice with ice cold PBS and the unbound activity was retained for analysis. The cells were lysed with 1 mL of 1 M NaOH and collected. Bound and unbound fractions were counted in a liquid scintillation counter and expressed as a percentage of the total activity added per equal relative number of cells. […]. The specific binding component was plotted against the log of the competing ligand and curve fit using a non-linear regression algorithm with PRISM software.

[1] abbreviates: DU145 cells, displacing 3H-dexamethasone, read-out: KD huGR.

pKd: −log10 of the molar value. Read-outs that look alike come from different tables or passages of the source.

Take `C[C@]12C=CC(=O)C=C1CCC1C2[C@@H](O)C[C@@]2(C)C1CC[C@]2(O)C(=O)COCCCF` (stereo partly drawn) [GR01]: the pKd (in general, −log10 of the Kd, conventionally taken in molar units) is 8.41 on human GR (setting [1]); 8.42 at human GR (Supplementary Table 1, read-out: KD for human GR); 6.01 on huER.

Take `C[C@]12C=CC(=O)C=C1CCC1C2[C@@H](O)C[C@@]2(C)C1CC[C@]2(O)C(=O)CNC(=O)c1ccc(F)cc1` (stereo partly drawn) [GR02]: the figures for the pKd at human GR (setting [1]), at huER and at rat GR were 7.80, 4.68 and 8.21, respectively.
